US20240197891A1, “PHARMACEUTICAL COMPOSITIONS COMPRISING POH DERIVATIVES” (UNIVERSITY OF SOUTHERN CALIFORNIA, priority 2021, published 2024)

Experiments:
[1] = system: TMZ sensitive (U251) cells; test: Colony forming assay, TMZ sensitive U251 cells; type: cell-based, human; conditions: TMZ sensitive U251 cells
Description: (§1) Colony forming assays were carried out after cells were treated with TMZ alone, POH alone, and the TMZ-POH conjugate. […] Cancer Lett. 2011 Mar. 28; 302(2):100-8.

[2] = system: TMZ resistant (U251TR) U251 cells; test: Colony forming assay, TMZ resistant U251TR cells; type: cell-based, human
Description: as §1

[3] = system: USC-02 glioma cancer stem cells; test: MTT cytotoxicity assay, USC-02 glioma cancer stem cells; type: cell-based; conditions: USC-02; increasing concentrations (TMZ 0-400 uM; POH 0-2 mM)
Text: Cancer Lett. 2011 Mar. 28; 302(2):100-8.

IL-6 = test: Serum IL-6 following UV exposure; type: in vivo, mouse
Description: SKH-1 hairless mice were treated with 10 mg/kg POH-LA conjugate freshly prepared daily. The POH-LA conjugate was formulated in glycerol:ethanol (90:10) while the control animals received the glycerol:ethanol vehicle only or the commercially available sunblock (Well & Good Sun Protection Wipes SPF 15). Additional test groups were treated with POH formulated in the glycerol:ethanol vehicle or linoleic acid formulated in the glycerol:ethanol vehicle. 50 μL of each formulation was placed on a area 1 cm^2 area that was exposed to the UV light. The mice were treated with their respective formulations after exposure to the UV light. In FIG. 22A, the mouse was treated with sunblock. In FIG. 22B, the mouse was treated with POH. In FIG. 22C, the mouse was treated with linoleic acid. In FIG. 22D, the mouse was treated with POH-LA conjugate. […] The POH-LA conjugate, POH or linoleic acid solutions were gently spread on the skin surface and allowed to air dry. The sunblock mouse was gently wiped on the exposure area with the sunblock towelette. This exposure and treatment went on for a maximum of 10 weeks. Throughout the experimental period the animals were photographed and weighed. At the end of the experimental period the mice were photographed and euthanized, followed by skin and blood collection. Blood was analyzed for markers of inflammation and DNA recovered from the exposed area of the skin and analyzed for markers of DNA damage.
Furthermore, blood samples were taken from each mouse 4 hours after the last cutaneous treatment. About 0.5 mL of blood was collected by cardiac puncture […]. Serum was aliquoted in Eppendorf tubes and store at −80° C. as preparation for cytokine analyses. […]
Mice were treated with 10 mg/kg POH-LA conjugate freshly prepared daily. […] Blood was analyzed for markers of inflammation and DNA recovered from the exposed area of the skin and analyzed for markers of DNA damage.

[4] = system: skin inflammation induced by asTPA; test: asTPA-induced skin inflammation in mice; type: in vivo, mouse; conditions: topical, 3 days pretreatment plus 7 days asTPA, glycerol:ethanol (90:10)
Description: A first group of mice were pre-treated with a solution of 50 microliters (μL) of a conjugate of POH and linoleic acid (e.g., linoleoyl ester of POH) in a vehicle of a glycerol:ethanol (90:10) mixture. The POH-linoleic acid conjugate solution was applied on the hip flank of the mice for a period of 3 days. A second, control group of mice were treated solely with the glycerol:ethanol (90:10) vehicle.
After pre-treatment, skin inflammation was induced on the first and second groups of mice by daily cutaneous application of an acetonic solution of 12-0-Tetradecanoylphorbol-13-acetate (asTPA) (which is a known irritant) to the backs of the mice over seven days. The asTPA was not applied to a further control group. To facilitate application of the asTPA, mice were anaesthetized by inhalation of isofluorane. 100 microliters of asTPA (corresponding to 20 micrograms (μg) of TPA) was then applied onto the skin of the mice. Upon evaporation of the asTPA, the mice were returned to their cages.
During the seven-day period in which the first and second groups of mice were subjected to application of asTPA, the first group continued to receive treatment of the POH-linoleic acid conjugate and vehicle solution, and the second group continued to receive treatment of the vehicle. At the end of the seven-day period, the mice were photographed.

[5] = system: follistatin, α6β4 integrin, Yap1; test: Staining of the skin for follistatin, α6β4 integrin and Yap1; type: in vivo
Text: Activins are members of the transforming growth factor-β family of growth and differentiation factors. The biological activity of activins is regulated by the secreted glycoprotein follistatin, which sequesters activins and thus inhibits their biological activities. Follistatin controls keratinocyte proliferation in skin wounds. Most importantly, it has been shown that limited activation of activin in keratinocytes is beneficial for the wound healing process. FIGS. 27A-C show the staining of the skin with activation of follistatin with POH-LA conjugate (FIG. 27A), POH, (FIG. 27B), and Linoleic Acid (FIG. 27C).
FIGS. 27D-F show the staining of the skin with activation of α6β4 integrin with POH-LA conjugate (FIG. 27D), POH, (FIG. 27E), and Linoleic Acid (FIG. 27F).
Yap1 is a critical modulator of epidermal stem cell proliferation and tissue expansion. α-catenin controls Yap1 activity and phosphorylation by modulating its interaction with 14-3-3 and the PP2A phosphatase. This aids in the identification of Yap1 as a determinant of the proliferative capacity of epidermal stem cells and as an important effector of a “crowd control” molecular circuitry in mammalian skin. FIGS. 27G-I show the staining of the skin with activation of Yap1 with POH-LA conjugate (FIG. 27G), POH, (FIG. 27H), and Linoleic Acid (FIG. 27I).

Row | Compound | cytotoxicity (colony forming assay) [1] | cytotoxicity (colony forming assay) [2] | cytotoxicity (MTT) [3] | IL-6 levels (IL-6) [pg/mL] | skin appearance where asTPA was applied [4] | activation of cellular proteins [5] | skin regeneration via stem cell activation [5]
1 | C=C(C)[C@@H]1CC=C(CO)CC1 [POH, perillyl alcohol] | demonstrated cytotoxicity | demonstrated cytotoxicity | demonstrated cytotoxicity | 17.9 ± 2.8 |  |  | 
2 | C=C(C)[C@@H]1CC=C(COC(=O)CCCCCCC/C=C\C/C=C\CCCCC)CC1 [POH-LA conjugate, Octadeca-9,12-dienoic acid 4-isopropenyl-cyclohex-1-enylmethyl ester] |  |  |  | 15.2 ± 4.1 | no inflammation or flaking | enhance the activation of cellular proteins | stimulate skin regeneration via stem cell activation
